Source: patent US20230159510A1, “NOVEL PRMT5 INHIBITORS” (AMGEN INC., priority 2020, published 2023)
Like-named read-outs stand apart in the source and are kept apart here.

What was measured:
HCT116 MTAP null cells = assay: HCT116 proliferation assay, MTAP null cells (CellTiter-Glo, 6 days); type: cell-based; settings: 144 h, read-out: Protif_ HCT116-MTAP null IC50
How it was run: (§1)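 Luminescent viability signal was measured after continuous drug exposure. Before dosing, cells attached overnight (37° C, 5% CO2) in RPMI 1640 + 10% FBS. Dosing used 1:3 steps over 8 or 9 points, starting at 1 or 10 µM, with DMSO-only wells as control.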

HCT116 WT cells = assay: HCT116 proliferation assay, WT cells (CellTiter-Glo, 6 days); type: cell-based; settings: Homo sapiens, HCT-116, 144 h, read-out: Prolif_HCT116-WT IC50
How it was run: as §1

PRMT5/MEP50 = PRMT5/MEP50 (Homo sapiens, UniProt O14744); assay: MTase-Glo methyl transferase assay, Method A (Histone H4 peptide, 1 µM MTA, 24 h pre-incubation); type: biochemical; set-up: made in house; settings: read-out: PRMT5 MTase Glo Ki (nM, Meth. A)
PRMT5/MEP50, sequence (O14744 whole entry): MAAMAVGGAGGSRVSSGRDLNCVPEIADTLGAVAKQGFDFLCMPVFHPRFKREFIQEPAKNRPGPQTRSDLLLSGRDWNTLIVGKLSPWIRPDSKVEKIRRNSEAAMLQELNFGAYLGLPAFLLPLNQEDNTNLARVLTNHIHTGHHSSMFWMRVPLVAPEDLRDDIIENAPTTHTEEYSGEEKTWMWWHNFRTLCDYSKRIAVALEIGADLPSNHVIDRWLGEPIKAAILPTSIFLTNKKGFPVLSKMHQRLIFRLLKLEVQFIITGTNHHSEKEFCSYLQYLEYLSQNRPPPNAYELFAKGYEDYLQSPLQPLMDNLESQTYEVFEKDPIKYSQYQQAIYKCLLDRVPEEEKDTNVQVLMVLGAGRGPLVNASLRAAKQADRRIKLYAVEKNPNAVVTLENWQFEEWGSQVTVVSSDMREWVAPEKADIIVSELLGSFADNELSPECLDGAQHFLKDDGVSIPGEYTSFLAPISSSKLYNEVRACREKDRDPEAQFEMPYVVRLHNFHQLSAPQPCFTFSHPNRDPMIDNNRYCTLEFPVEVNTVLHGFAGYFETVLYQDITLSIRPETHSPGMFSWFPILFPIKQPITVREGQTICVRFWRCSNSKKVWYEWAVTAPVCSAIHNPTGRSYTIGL
PRMT5/MEP50, sequence (Q9BQA1 whole entry partner): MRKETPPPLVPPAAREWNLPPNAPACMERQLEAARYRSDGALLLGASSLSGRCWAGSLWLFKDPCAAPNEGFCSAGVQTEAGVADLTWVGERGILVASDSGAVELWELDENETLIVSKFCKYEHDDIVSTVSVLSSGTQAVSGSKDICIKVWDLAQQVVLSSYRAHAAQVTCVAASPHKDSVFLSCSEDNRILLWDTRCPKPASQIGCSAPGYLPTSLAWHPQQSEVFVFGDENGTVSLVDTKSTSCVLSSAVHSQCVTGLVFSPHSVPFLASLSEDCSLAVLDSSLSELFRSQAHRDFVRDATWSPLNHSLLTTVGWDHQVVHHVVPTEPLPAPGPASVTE
How it was run: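 Luminescent SAH detection (MTase-Glo) after a 2 h room-temperature methylation of 1 µM biotinylated H4 (1-21) peptide by 10 nM PRMT5/MEP50 with 5 µM SAM, in 50 mM Tris pH 8.0.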

Compound	IC50 (HCT116 MTAP null cells; HCT116-MTAP null) [nM]	IC50 (HCT116 WT cells) [nM]	Ki (PRMT5/MEP50) [nM]	IC50 (HCT116 MTAP null cells) [nM]
COC(=O)c1ccc(CN(Cc2ncccc2F)C(=O)c2ccc3nc(N)c(C)cc3c2)nc1 [Example 331, methyl 6-((((2-amino-3-methyl-6-quinolinyl)carbonyl)((3-fluoro-2-pyridinyl)methyl)amino)methyl)-3-pyridinecarboxylate]	490	> 10000	0.13	
Cc1cc2cc(C(=O)N(Cc3ccc(C(F)(F)F)cn3)C3CC3)c(F)cc2nc1N [Example 332, 2-amino-N-cyclopropyl-7-fluoro-3-methyl-N-((5-(trifluoromethyl)-2-pyridinyl)methyl)-6-quinolinecarboxamide]	479	5140	4.87	
C[C@H](c1ncccn1)N(Cc1ccc(C2=CCOCC2)nn1)C(=O)c1ccc2nc(N)c(Cl)cc2c1 [Example 334, 2-amino-3-chloro-N-((6-(3,6-dihydro-2H-pyran-4-yl)-3-pyridazinyl)methyl)-N-((1R)-1-(2-pyrimidinyl)ethyl)-6-quinolinecarboxamide]	434	> 10000	0.34	
Cc1cc2cc(C(=O)N(Cc3ccncn3)Cc3ccc(C(F)(F)F)cn3)ccc2nc1N [Example 335, 2-amino-3-methyl-N-(4-pyrimidinylmethyl)-N-((5-(trifluoromethyl)-2-pyridinyl)methyl)-6-quinolinecarboxamide]	727	> 10000	0.73	
Cc1cnc(CN(Cc2ccc(C(F)(F)F)cn2)C(=O)c2ccc3nc(N)c(C)cc3c2)cn1 [Example 337, 2-amino-3-methyl-N-((5-methyl-2-pyrazinyl)methyl)-N-((5-(trifluoromethyl)-2-pyridinyl)methyl)-6-quinolinecarboxamide]	434	> 10000	0.39	
Cc1cc2cc(C(=O)N(Cc3ccc(C(F)(F)F)cn3)Cc3ncccn3)ccc2nc1N [Example 338, 2-amino-3-methyl-N-(2-pyrimidinylmethyl)-N-((5-(trifluoromethyl)-2-pyridinyl)methyl)-6-quinolinecarboxamide]		> 10000	0.8	232
Cc1cc2cc(C(=O)N(Cc3ccc(Cl)cn3)Cc3ncccn3)ccc2nc1N [Example 340, 2-amino-N-((5-chloro-2-pyridinyl)methyl)-3-methyl-N-(2-pyrimidinylmethyl)-6-quinolinecarboxamide]	505	> 10000	1.39	
Cc1cc2cc(C(=O)N(Cc3ccc(C(F)(F)F)cn3)Cc3ncc(F)cn3)ccc2nc1N [Example 341, 2-amino-N-((5-fluoro-2-pyrimidinyl)methyl)-3-methyl-N-((5-(trifluoromethyl)-2-pyridinyl)methyl)-6-quinolinecarboxamide]	437	> 10000	0.52	
Cc1cc2cc(C(=O)N(Cc3ccncc3)Cc3ccc(C(F)(F)F)cn3)ccc2nc1N [Example 342, 2-amino-3-methyl-N-(4-pyridinylmethyl)-N-((5-(trifluoromethyl)-2-pyridinyl)methyl)-6-quinolinecarboxamide]	730	> 10000	2.72	
C[C@H](c1ncccn1)N(Cc1ccc(Br)nn1)C(=O)c1ccc2nc(N)c(Cl)cc2c1 [Example 348, 2-amino-N-((6-bromo-3-pyridazinyl)methyl)-3-chloro-N-((1R)-1-(2-pyrimidinyl)ethyl)-6-quinolinecarboxamide]	413	> 10000	0.73	
C[C@H](c1ncccc1F)N(Cc1ccc(C#N)cn1)C(=O)c1ccc2nc(N)c(Cl)cc2c1 [Example 351, 2-amino-3-chloro-N-((5-cyano-2-pyridinyl)methyl)-N-((1R)-1-(3-fluoro-2-pyridinyl)ethyl)-6-quinolinecarboxamide]	824	> 10000	1.29	

More lines, main results first:

IC50 (HCT116 MTAP null cells; HCT116-MTAP null) [nM]	IC50 (HCT116 WT cells) [nM]	Ki (PRMT5/MEP50) [nM]	Compound	IC50 (HCT116 MTAP null cells) [nM]
27	720	0.002	Cc1cc2cc(C(=O)N(Cc3ccc(C4=CCOCC4)nn3)[C@H](C)c3ncccn3)ccc2nc1N [Example 333, 2-amino-N-((6-(3,6-dihydro-2H-pyran-4-yl)-3-pyridazinyl)methyl)-3-methyl-N-((1R)-1-(2-pyrimidinyl)ethyl)-6-quinolinecarboxamide]	
400	> 10000	0.47	Cc1cc2cc(C(=O)N(Cc3ccc(C(F)(F)F)cn3)Cc3cnccn3)ccc2nc1N [Example 336, 2-amino-3-methyl-N-(2-pyrazinylmethyl)-N-((5-(trifluoromethyl)-2-pyridinyl)methyl)-6-quinolinecarboxamide]	
104	2830	0.66	Cc1cc2cc(C(=O)N(Cc3ccc(C(F)(F)F)cn3)Cc3ncccc3C)ccc2nc1N [Example 343, 2-amino-3-methyl-N-((3-methyl-2-pyridinyl)methyl)-N-((5-(trifluoromethyl)-2-pyridinyl)methyl)-6-quinolinecarboxamide]	
73	1800	0.1	Cc1cc2cc(C(=O)N(Cc3ccc(C(F)(F)F)cn3)Cc3c(F)cccc3F)ccc2nc1N [Example 344, 2-amino-N-(2,6-difluorobenzyl)-3-methyl-N-((5-(trifluoromethyl)-2-pyridinyl)methyl)-6-quinolinecarboxamide]	
81	1580	0.04	C[C@H](c1ccc(F)cc1F)N(Cc1ccc(C(F)(F)F)cn1)C(=O)c1cnc2nc(N)c(Br)cc2c1 [Example 346, 7-amino-6-bromo-N-((1R)-1-(2,4-difluorophenyl)ethyl)-N-((5-(trifluoromethyl)-2-pyridinyl)methyl)-1,8-naphthyridine-3-carboxamide]	
168	6200	0.17	C[C@H](c1ncccn1)N(Cc1ccc(C(F)(F)F)cn1)C(=O)c1ccc2nc(N)c(Cl)cc2c1 [Example 347, 2-amino-3-chloro-N-((1R)-1-(2-pyrimidinyl)ethyl)-N-((5-(trifluoromethyl)-2-pyridinyl)methyl)-6-quinolinecarboxamide]	
36	848	0.02	Cc1cc2cc(C(=O)N(Cc3ccc(Br)nn3)[C@H](C)c3ncccn3)c(F)cc2nc1N [Example 349, 2-amino-N-((6-bromo-3-pyridazinyl)methyl)-7-fluoro-3-methyl-N-((1R)-1-(2-pyrimidinyl)ethyl)-6-quinolinecarboxamide]	
397	> 10000	0.56	C[C@H](c1ncccn1)N(Cc1ccc(Br)nn1)C(=O)c1cnc2nc(N)c(Br)cc2c1 [Example 350, 7-amino-6-bromo-N-((6-bromo-3-pyridazinyl)methyl)-N-((1R)-1-(2-pyrimidinyl)ethyl)-1,8-naphthyridine-3-carboxamide]	
200	8090	0.14	C[C@H](c1ncccc1F)N(Cc1ccc(C#N)cn1)C(=O)c1ccc2nc(N)c(Br)cc2c1 [Example 352, 2-amino-3-bromo-N-((5-cyano-2-pyridinyl)methyl)-N-((1R)-1-(3-fluoro-2-pyridinyl)ethyl)-6-quinolinecarboxamide]	
73	1510	0.02	Cc1cc2cc(C(=O)N(Cc3ccc(C#N)cn3)[C@H](C)c3ncccc3F)c(F)cc2nc1N [Example 353, 2-amino-N-((5-cyano-2-pyridinyl)methyl)-7-fluoro-N-((1R)-1-(3-fluoro-2-pyridinyl)ethyl)-3-methyl-6-quinolinecarboxamide]	
